Data reported in PMC10648852, “Molecular drivers of resistance to sulbactam-durlobactam in contemporary clinical isolates of Acinetobacter baumannii” (Antimicrobial Agents and Chemotherapy, 2023).
Where two headings read alike, the source gives them in different places.

Tests used:
A. baumannii PBP3 N392T = experiment: Acylation rate constant (kinact/Ki), fluorescence anisotropy competition with BOCILLIN
A. baumannii PBP3 N377Y = experiment: as above
[1] = tested on: A. baumannii clinical isolates; experiment: microbe, parasite or virus in culture; assay type: cell-based; conditions: Acinetobacter baumannii
Summary of the method: (§1)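 Broth microdilution MICs following CLSI methods, interpreted with CLSI breakpoints where available. Sulbactam tested as twofold dilutions combined with fixed 4 µg/mL durlobactam.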

[2] = tested on: A. pittii clinical isolates; experiment: microbe, parasite or virus in culture; assay type: cell-based; conditions: Acinetobacter pittii
Summary of the method: as §1

[3] = tested on: A. nosocomialis clinical isolate; experiment: microbe, parasite or virus in culture; assay type: cell-based; conditions: Acinetobacter nosocomialis, isolate ARC7023 (IHMA 2118812), France, BSI, 2019, read-out: MIC
Summary of the method: as §1

A. baumannii PBP3 Q488K = experiment: Acylation rate constant (kinact/Ki), fluorescence anisotropy competition with BOCILLIN
[4] = tested on: ABC clinical isolates with SUL-DUR MIC > 4 µg/mL; experiment: microbe, parasite or virus in culture; assay type: cell-based, Acinetobacter baumannii-calcoaceticus complex
Summary of the method: as §1

A. baumannii PBP3 H370Y = experiment: Acylation rate constant (kinact/Ki), fluorescence anisotropy competition with BOCILLIN
A. baumannii PBP3 S395F = tested on: A. baumannii PBP3 S395F; parameters: method as in McLeod et al. (2018); conditions: average ± SD, ref McLeod et al. (2018); cited from earlier work
[5] = tested on: A. baumannii wild-type PBP3; experiment: Acylation rate constant (kinact/Ki), fluorescence anisotropy competition with BOCILLIN; conditions: Wildtype PBP3

## C[C@@H](O)[C@H]1C(=O)N2C(C(=O)O)=C(SCCN=CN)C[C@H]12 [imipenem]
A. baumannii PBP3 N392T
  % WT: 175.6%
A. baumannii PBP3 N392T; average ± SD
  k inact/K i: 790 ± 50 ([2]) M^-1s^-1
A. baumannii PBP3 N377Y
  % WT: 62.2%
A. baumannii PBP3 N377Y; average ± SD
  k inact/K i: 280 ± 10 ([2]) M^-1s^-1
[1]; isolate ARC6644 (IHMA 1420327), Mexico, UTI, 2016, read-out: MIC
  MIC: 16 µg/mL
[1]; isolate ARC6645 (IHMA 1435703), France, UTI, 2016, read-out: MIC
  MIC: > 64 µg/mL
[1]; isolate ARC6646 (IHMA 1484127), United States, RTI, 2016, read-out: MIC
  MIC: 64 µg/mL
[1]; isolate ARC6647 (IHMA 1386786), Argentina, RTI, 2016, read-out: MIC
  MIC: > 64 µg/mL
[1]; isolate ARC6648 (IHMA 1407634), Spain, RTI, 2016, read-out: MIC
  MIC: > 64 µg/mL
[1]; isolate ARC6650 (IHMA 1457337), Argentina, RTI, 2016, read-out: MIC
  MIC: 32 µg/mL
[1]; isolate ARC6652 (IHMA 1465642), Belgium, RTI, 2016, read-out: MIC
  MIC: 64 µg/mL
[1]; isolate ARC6653 (IHMA 1308777), Vietnam, RTI, 2016, read-out: MIC
  MIC: 64 µg/mL
[1]; isolate ARC6799 (IHMA 1562935), Spain, UTI, 2017, read-out: MIC
  MIC: 64 µg/mL
[1]; isolate ARC6800 (IHMA 1557526), Turkey, RTI, 2017, read-out: MIC
  MIC: 64 µg/mL
[1]; isolate ARC6801 (IHMA 1662094), Thailand, RTI, 2017, read-out: MIC
  MIC: > 64 µg/mL
[1]; isolate ARC6802 (IHMA 1557073), Spain, UTI, 2017, read-out: MIC
  MIC: 64 µg/mL
[1]; isolate ARC6803 (IHMA 1589408), Belgium, UTI, 2017, read-out: MIC
  MIC: 64 µg/mL
[1]; isolate ARC6805 (IHMA 1558650), United States, RTI, 2017, read-out: MIC
  MIC: 32 µg/mL
[1]; isolate ARC6808 (IHMA 1557168), Spain, RTI, 2017, read-out: MIC
  MIC: 64 µg/mL
[1]; isolate ARC6809 (IHMA 1699528), Guatemala, RTI, 2017, read-out: MIC
  MIC: > 64 µg/mL
[1]; isolate ARC6810 (IHMA 1699548), Guatemala, RTI, 2017, read-out: MIC
  MIC: > 64 µg/mL
[1]; isolate ARC6812 (IHMA 1699530), Guatemala, RTI, 2017, read-out: MIC
  MIC: 64 µg/mL
[1]; isolate ARC6813 (IHMA 1699543), Guatemala, UTI, 2017, read-out: MIC
  MIC: > 64 µg/mL
[1]; isolate ARC6814 (IHMA 1699512), Guatemala, RTI, 2017, read-out: MIC
  MIC: > 64 µg/mL
[1]; isolate ARC6815 (IHMA 1699513), Guatemala, RTI, 2017, read-out: MIC
  MIC: > 64 µg/mL
[1]; isolate ARC6816 (IHMA 1699521), Guatemala, RTI, 2017, read-out: MIC
  MIC: > 64 µg/mL
[1]; isolate ARC6817 (IHMA 1699523), Guatemala, RTI, 2017, read-out: MIC
  MIC: > 64 µg/mL
[1]; isolate ARC6818 (IHMA 1683261), Thailand, RTI, 2017, read-out: MIC
  MIC: > 64 µg/mL
[1]; isolate ARC6819 (IHMA 1683267), Thailand, RTI, 2017, read-out: MIC
  MIC: > 64 µg/mL
[1]; isolate ARC6820 (IHMA 1647876), Argentina, RTI, 2017, read-out: MIC
  MIC: 64 µg/mL
[1]; isolate ARC6821 (IHMA 1699517), Guatemala, RTI, 2017, read-out: MIC
  MIC: > 64 µg/mL
[1]; isolate ARC6822 (IHMA 1637626), Guatemala, RTI, 2017, read-out: MIC
  MIC: 64 µg/mL
[1]; isolate ARC6823 (IHMA 1620872), Greece, SSSI, 2017, read-out: MIC
  MIC: 64 µg/mL
[1]; isolate ARC6824 (IHMA 1625487), Argentina, BSI, 2017, read-out: MIC
  MIC: 64 µg/mL
[1]; isolate ARC6937 (IHMA 1562926), Spain, UTI, 2017, read-out: MIC
  MIC: 64 µg/mL
[1]; isolate ARC6950 (IHMA 1820064), Israel, RTI, 2018, read-out: MIC
  MIC: > 64 µg/mL
[1]; isolate ARC6953 (IHMA 1909827), Turkey, IAI, 2018, read-out: MIC
  MIC: 64 µg/mL
[1]; isolate ARC6954 (IHMA 1838192), Guatemala, SSSI, 2018, read-out: MIC
  MIC: > 64 µg/mL
[1]; isolate ARC6955 (IHMA 1825425), United States, RTI, 2018, read-out: MIC
  MIC: 64 µg/mL
[1]; isolate ARC7008 (IHMA 2009813), Thailand, BSI, 2019, read-out: MIC
  MIC: > 64 µg/mL
[1]; isolate ARC7009 (IHMA 2043611), United States, UTI, 2019, read-out: MIC
  MIC: > 64 µg/mL
[1]; isolate ARC7010 (IHMA 2043398), United States, RTI, 2019, read-out: MIC
  MIC: > 64 µg/mL
[1]; isolate ARC7011 (IHMA 2104553), Germany, RTI, 2019, read-out: MIC
  MIC: > 64 µg/mL
[1]; isolate ARC7012 (IHMA 2010001), Thailand, RTI, 2019, read-out: MIC
  MIC: > 64 µg/mL
[1]; isolate ARC7013 (IHMA 1962831), Argentina, RTI, 2019, read-out: MIC
  MIC: > 64 µg/mL
[1]; isolate ARC7014 (IHMA 2045328), Guatemala, IAI, 2019, read-out: MIC
  MIC: 64 µg/mL
[1]; isolate ARC7015 (IHMA 2045327), Guatemala, UTI, 2019, read-out: MIC
  MIC: 64 µg/mL
[1]; isolate ARC7016 (IHMA 2148441), Brazil, BSI, 2019, read-out: MIC
  MIC: > 64 µg/mL
[1]; isolate ARC7017 (IHMA 2148446), Brazil, BSI, 2019, read-out: MIC
  MIC: > 64 µg/mL
[1]; isolate ARC7018 (IHMA 2045454), Guatemala, IAI, 2019, read-out: MIC
  MIC: > 64 µg/mL
[1]; isolate ARC7019 (IHMA 2114463), Thailand, RTI, 2019, read-out: MIC
  MIC: > 64 µg/mL
[1]; isolate ARC7020 (IHMA 2045326), Guatemala, RTI, 2019, read-out: MIC
  MIC: 64 µg/mL
[1]; isolate ARC7021 (IHMA 1966347), Guatemala, RTI, 2019, read-out: MIC
  MIC: 64 µg/mL
[1]; isolate ARC7022 (IHMA 2045319), Guatemala, IAI, 2019, read-out: MIC
  MIC: 64 µg/mL
[1]; isolate ARC7024 (IHMA 2059448), Turkey, RTI, 2019, read-out: MIC
  MIC: 64 µg/mL
[1]; isolate ARC7025 (IHMA 2002121), Spain, RTI, 2019, read-out: MIC
  MIC: 64 µg/mL
[1]; isolate ARC7026 (IHMA 2104494), Guatemala, BSI, 2019, read-out: MIC
  MIC: > 64 µg/mL
[1]; isolate ARC7082 (IHMA 2160640), Belgium, BSI, 2020, read-out: MIC
  MIC: > 64 µg/mL
[1]; isolate ARC7083 (IHMA 2163687), United States, RTI, 2020, read-out: MIC
  MIC: 64 µg/mL
[1]; isolate ARC7084 (IHMA 2189596), Germany, RTI, 2020, read-out: MIC
  MIC: > 64 µg/mL
[1]; isolate ARC7085 (IHMA 2205747), Guatemala, IAI, 2020, read-out: MIC
  MIC: > 64 µg/mL
[1]; isolate ARC7086 (IHMA 2207563), Israel, RTI, 2020, read-out: MIC
  MIC: > 64 µg/mL
[1]; isolate ARC7088 (IHMA 2215554), Turkey, BSI, 2020, read-out: MIC
  MIC: > 64 µg/mL
[1]; isolate ARC7089 (IHMA 2240345), Argentina, BSI, 2020, read-out: MIC
  MIC: 64 µg/mL
[1]; isolate ARC7090 (IHMA 2244410), Poland, RTI, 2020, read-out: MIC
  MIC: > 64 µg/mL
[1]; isolate ARC7091 (IHMA 2244564), Australia, RTI, 2020, read-out: MIC
  MIC: > 64 µg/mL
[1]; isolate ARC7092 (IHMA 2258772), United States, BSI, 2020, read-out: MIC
  MIC: > 64 µg/mL
[1]; isolate ARC7093 (IHMA 2258783), United States, RTI, 2020, read-out: MIC
  MIC: > 64 µg/mL
[1]; isolate ARC7094 (IHMA 2296423), Turkey, RTI, 2020, read-out: MIC
  MIC: 64 µg/mL
[1]; isolate ARC7095 (IHMA 2320843), Turkey, BSI, 2020, read-out: MIC
  MIC: 64 µg/mL
[1]; isolate ARC7156 (IHMA 2455450), Greece, RTI, 2021, read-out: MIC
  MIC: > 64 µg/mL
[1]; isolate ARC7158 (IHMA 2523738), Italy, BSI, 2021, read-out: MIC
  MIC: > 64 µg/mL
[1]; isolate ARC7159 (IHMA 2456229), Malaysia, RTI, 2021, read-out: MIC
  MIC: > 64 µg/mL
[1]; isolate ARC7160 (IHMA 2458626), Thailand, RTI, 2021, read-out: MIC
  MIC: > 64 µg/mL
[1]; isolate ARC7161 (IHMA 2429252), Ukraine, RTI, 2021, read-out: MIC
  MIC: > 64 µg/mL
[1]; isolate ARC7162 (IHMA 2411847), United States, BSI, 2021, read-out: MIC
  MIC: > 64 µg/mL
[1]; isolate ARC7163 (IHMA 2477704), United States, BSI, 2021, read-out: MIC
  MIC: > 64 µg/mL
[2]; isolate ARC6949 (IHMA 1898982), Romania, RTI, 2018, read-out: MIC
  MIC: > 64 µg/mL
[2]; isolate ARC6951 (IHMA 1776233), Philippines, RTI, 2018, read-out: MIC
  MIC: > 64 µg/mL
[2]; isolate ARC6952 (IHMA 1899008), Romania, RTI, 2018, read-out: MIC
  MIC: > 64 µg/mL
[2]; isolate ARC7087 (IHMA 2212062), Colombia, BSI, 2020, read-out: MIC
  MIC: 64 µg/mL
[3]
  MIC: 64 µg/mL
A. baumannii PBP3 Q488K
  % WT: 82.2%
A. baumannii PBP3 Q488K; average ± SD
  k inact/K i: 370 ± 20 ([2]) M^-1s^-1
[4]; 64 non-clonal ABC isolates, 2023 CLSI breakpoints plus FDA breakpoint of 4 µg/mL for SUL-DUR
  %NS (% non-susceptibility): 100%
[4]; Acinetobacter
  MIC50: > 64 µg/mL
  MIC90: > 64 µg/mL
[4]; Acinetobacter, read-out: MIC Max
  MIC: > 64 µg/mL
[4]; Acinetobacter, read-out: MIC Min
  MIC: 16 µg/mL
A. baumannii PBP3 H370Y
  % WT: 106.7%
A. baumannii PBP3 H370Y; average ± SD
  k inact/K i: 480 ± 40 ([2]) M^-1s^-1
A. baumannii PBP3 S395F
  k inact/K i: 8.8 ± 0.7 ([3]) M^-1s^-1
[5]
  % WT: 100%
[5]; average ± SD
  k inact/K i: 450 ± 60 ([10]) M^-1s^-1
